The target in the experiment is T1, TNF-α (Homo sapiens, UniProt P01375).
T1 construct: purchased R&D 210-TA-020/CF
As to the kind of experiment: TNF-α Induced HEK Blue Cellular Assay (secreted alkaline phosphatase expression, QUANTI-Blue). In kind it is cell-based. Conditions: HEK Blue TNFα reporter cells; TNF-α 100 μg/ml; 24 hrs at 37° C.; inhibition of secreted alkaline phosphatase; read-out: IC50 value. A digest of the protocol: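 Compound was serially diluted from […] to 0.5 nM final, then incubated with 10,000 HEK Blue TNFα reporter cells per well and […] TNF-α for 24 h at 37° C. SEAP output was read by QUANTI-Blue absorbance at 620 nm. Inhibition was background-corrected against DMSO controls with and without stimulation, and IC50 was fitted with a 4-parameter logistic equation.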

T1 sequence (P01375 77-233 limits assumed): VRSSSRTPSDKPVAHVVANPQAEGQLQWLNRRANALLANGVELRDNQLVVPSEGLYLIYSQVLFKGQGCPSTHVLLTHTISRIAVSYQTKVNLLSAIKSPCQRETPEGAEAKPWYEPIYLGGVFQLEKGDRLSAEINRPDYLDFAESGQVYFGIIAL

Take `[2H]C([2H])([2H])N1C(=O)c2cccc(OC(F)F)c2[C@H]2C[C@@H]1c1nc3ccc(C#Cc4cncs4)cc3n12` [Example 32, (7R,14R)-1-(difluoromethoxy)-6-(methyl-d3)-11-(thiazol-5-ylethynyl)-6,7-dihydro-7,14-methanobenzo[f]benzo[4,5]imidazo[1,2-a][1,4]diazocin-5(14H)-one]: the IC50 was less than 100 nM.
The same measure for `[2H]C([2H])([2H])N1C(=O)c2cccc(OC(F)F)c2[C@H]2C[C@@H]1c1nc3ccc(C#Cc4nncn4C)cc3n12` [Example 25, (7R,14R)-1-(difluoromethoxy)-6-(methyl-d3)-11-((4-methyl-4H-1,2,4-triazol-3-yl)ethynyl)-6,7-dihydro-7,14-methanobenzo[f]benzo[4,5]imidazo[1,2-a][1,4]diazocin-5(14H)-one]: 1000 to 10000 nM; for `[2H]C([2H])([2H])N1C(=O)c2cccc(OC(F)F)c2[C@H]2C[C@@H]1c1nc3ccc(C#CC(N)CC(C)(C)O)cc3n12` (single isomer, unassigned) [Example 216, (7R,14R)-11-((S or R)-3-amino-5-hydroxy-5-methylhex-1-yn-1-yl)-1-(difluoromethoxy)-6-(methyl-d3)-6,7-dihydro-7,14-methanobenzo[f]benzo[4,5]imidazo[1,2-a][1,4]diazocin-5(14H)-one]: 10000 to 30000 nM; for `[2H]C([2H])([2H])N1C(=O)c2cccc(OC(F)F)c2[C@H]2C[C@@H]1c1nc3ccc(C#CC4CCN(C(=O)C5(O)CC5)CC4)cc3n12` [Example 187, (7R,14R)-1-(difluoromethoxy)-11-((1-(1-hydroxycyclopropane-1-carbonyl)piperidin-4-yl)ethynyl)-6-(methyl-d3)-6,7-dihydro-7,14-methanobenzo[f]benzo[4,5]imidazo[1,2-a][1,4]diazocin-5(14H)-one]: less than 100 nM.
Take `[2H]C([2H])([2H])N1C(=O)c2cccc(OC(F)F)c2[C@H]2C[C@@H]1c1nc3ccc(C#CC4CN(C5COC5)C4)cc3n12` [Example 224, (7R,14R)-1-(difluoromethoxy)-6-(methyl-d3)-11-((1-(oxetan-3-yl)azetidin-3-yl)ethynyl)-6,7-dihydro-7,14-methanobenzo[f]benzo[4,5]imidazo[1,2-a][1,4]diazocin-5(14H)-one]: the half-maximal inhibitory concentration (IC50) is less than 100 nM.
The same measure for `[2H]C([2H])([2H])N1C(=O)c2cccc(OC(F)F)c2[C@H]2C[C@@H]1c1nc3ccc(C#Cc4cnc(C(C)(C)O)nc4)cc3n12` [Example 16, (7R,14R)-1-(difluoromethoxy)-11-((2-(2-hydroxypropan-2-yl)pyrimidin-5-yl)ethynyl)-6-(methyl-d3)-6,7-dihydro-7,14-methanobenzo[f]benzo[4,5]imidazo[1,2-a][1,4]diazocin-5(14H)-one]: less than 100 nM.
In the case of `[2H]C([2H])([2H])N1C(=O)c2cccc(OC(F)F)c2[C@H]2C[C@@H]1c1nc3ccc(C#CCCNC(=O)C4CC4)cc3n12` [Example 214, N-(4-((7R,14R)-1-(difluoromethoxy)-6-(methyl-d3)-5-oxo-5,6,7,14-tetrahydro-7,14-methanobenzo[f]benzo[4,5]imidazo[1,2-a][1,4]diazocin-11-yl)but-3-yn-1-yl)cyclopropanecarboxamide], the IC50 lay in the range of 100 to 1000 nM.
The value for `[2H]C([2H])([2H])N1C(=O)c2cccc(OC(F)F)c2[C@H]2C[C@@H]1c1nc3ccc(C#CCC(=O)OC)cc3n12` [Example 138, methyl 4-((7R,14R)-1-(difluoromethoxy)-6-(methyl-d3)-5-oxo-5,6,7,14-tetrahydro-7,14-methanobenzo[f]benzo[4,5]imidazo[1,2-a][1,4]diazocin-11-yl)but-3-ynoate] was 10000 to 30000 nM; that for `[2H]C([2H])([2H])N1C(=O)c2cccc(OC(F)F)c2[C@H]2C[C@@H]1c1nc3ccc(C#Cc4cncc(F)c4)cc3n12` [Example 31, (7R,14R)-1-(difluoromethoxy)-11-((5-fluoropyridin-3-yl)ethynyl)-6-(methyl-d3)-6,7-dihydro-7,14-methanobenzo[f]benzo[4,5]imidazo[1,2-a][1,4]diazocin-5(14H)-one] was less than 100 nM.
Consider `[2H]C([2H])([2H])N1C(=O)c2cccc(OC(F)F)c2[C@H]2C[C@@H]1c1nc3ccc(C#CC4CN(C(=O)C(C)(C)O)C4)cc3n12` [Example 126, (7R,14R)-1-(difluoromethoxy)-11-((1-(2-hydroxy-2-methylpropanoyl)azetidin-3-yl)ethynyl)-6-(methyl-d3)-6,7-dihydro-7,14-methanobenzo[f]benzo[4,5]imidazo[1,2-a][1,4]diazocin-5(14H)-one], for which the IC50 was less than 100 nM.
Turning to `[2H]C([2H])([2H])N1C(=O)c2cccc(OC(F)F)c2[C@H]2C[C@@H]1c1nc3ccc(C#CCN(C)CC)cc3n12` [Example 67, (7R,14R)-1-(difluoromethoxy)-11-(3-(ethyl(methyl)amino)prop-1-yn-1-yl)-6-(methyl-d3)-6,7-dihydro-7,14-methanobenzo[f]benzo[4,5]imidazo[1,2-a][1,4]diazocin-5(14H)-one], the concentration for half-maximal inhibition (IC50) was in the range of 100 to 1000 nM.
Turning to `[2H]C([2H])([2H])N1C(=O)c2cccc(OC(F)F)c2[C@H]2C[C@@H]1c1nc3ccc(C#CC(O)CC(F)(F)F)cc3n12` (stereo partly drawn) [Example 219, (7R,14R)-1-(difluoromethoxy)-6-(methyl-d3)-11-(5,5,5-trifluoro-3-hydroxypent-1-yn-1-yl)-6,7-dihydro-7,14-methanobenzo[f]benzo[4,5]imidazo[1,2-a][1,4]diazocin-5(14H)-one], the half-inhibitory concentration (IC50) is less than 100 nM.
The value for `[2H]C([2H])([2H])N1C(=O)c2cccc(OC(F)F)c2[C@H]2C[C@@H]1c1nc3ccc(C#CCOC(C)CO)cc3n12` (stereo partly drawn) [Example 72, (7R,14R)-1-(difluoromethoxy)-11-(3-((1-hydroxypropan-2-yl)oxy)prop-1-yn-1-yl)-6-(methyl-d3)-6,7-dihydro-7,14-methanobenzo[f]benzo[4,5]imidazo[1,2-a][1,4]diazocin-5(14H)-one] was less than 100 nM.
Take `[2H]C([2H])([2H])N1C(=O)c2cccc(OC(F)F)c2[C@H]2C[C@@H]1c1nc3ccc(C#CCCN4CCCC4)cc3n12` [Example 136, (7R,14R)-1-(difluoromethoxy)-6-(methyl-d3)-11-(4-(pyrrolidin-1-yl)but-1-yn-1-yl)-6,7-dihydro-7,14-methanobenzo[f]benzo[4,5]imidazo[1,2-a][1,4]diazocin-5(14H)-one]: the IC50 is less than 100 nM.
The same measure for `[2H]C([2H])([2H])N1C(=O)c2cccc(OC(F)F)c2[C@H]2C[C@@H]1c1nc3ccc(C#CC4CCCN(C5CC5)C4)cc3n12` (stereo partly drawn) [Example 218, (7R,14R)-11-((1-cyclopropylpiperidin-3-yl)ethynyl)-1-(difluoromethoxy)-6-(methyl-d3)-6,7-dihydro-7,14-methanobenzo[f]benzo[4,5]imidazo[1,2-a][1,4]diazocin-5(14H)-one]: 10000 to 30000 nM; for `[2H]C([2H])([2H])N1C(=O)c2cccc(OC(F)F)c2[C@H]2C[C@@H]1c1nc3ccc(C#CC4CCN(C5CC5)C4)cc3n12` (stereo partly drawn) [Example 234, (7R,14R)-11-((1-cyclopropylpyrrolidin-3-yl)ethynyl)-1-(difluoromethoxy)-6-(methyl-d3)-6,7-dihydro-7,14-methanobenzo[f]benzo[4,5]imidazo[1,2-a][1,4]diazocin-5(14H)-one]: less than 100 nM; for `[2H]C([2H])([2H])N1C(=O)c2cccc(OC(F)F)c2[C@H]2C[C@@H]1c1nc3ccc(C#Cc4cn(C)nc4C#N)cc3n12` [Example 20, 4-(((7R,14R)-1-(difluoromethoxy)-6-(methyl-d3)-5-oxo-5,6,7,14-tetrahydro-7,14-methanobenzo[f]benzo[4,5]imidazo[1,2-a][1,4]diazocin-11-yl)ethynyl)-1-methyl-1H-pyrazole-3-carbonitrile]: less than 100 nM.
For the compound `[2H]C([2H])([2H])N1C(=O)c2cccc(OC(F)F)c2[C@H]2C[C@@H]1c1nc3ccc(C#C[C@@H]4CCCN4)cc3n12` [Example 59, (7R,14R)-1-(difluoromethoxy)-6-(methyl-d3)-11-(((S)-pyrrolidin-2-yl)ethynyl)-6,7-dihydro-7,14-methanobenzo[f]benzo[4,5]imidazo[1,2-a][1,4]diazocin-5(14H)-one], the IC50 is 10000 to 30000 nM.
The value for `[2H]C([2H])([2H])N1C(=O)c2cccc(OC(F)F)c2[C@H]2C[C@@H]1c1nc3ccc(C#CC4CCN(C(=O)C(C)(C)O)C4)cc3n12` (stereo partly drawn) [Example 202, (7R,14R)-1-(difluoromethoxy)-11-((1-(2-hydroxy-2-methylpropanoyl)pyrrolidin-3-yl)ethynyl)-6-(methyl-d3)-6,7-dihydro-7,14-methanobenzo[f]benzo[4,5]imidazo[1,2-a][1,4]diazocin-5(14H)-one] was 100 to 1000 nM; that for `[2H]C([2H])([2H])N1C(=O)c2cccc(OC(F)F)c2[C@H]2C[C@@H]1c1nc3ccc(C#CC4CC(C)(C#N)C4)cc3n12` (stereo partly drawn) [Example 159, 3-(((7R,14R)-1-(difluoromethoxy)-6-(methyl-d3)-5-oxo-5,6,7,14-tetrahydro-7,14-methanobenzo[f]benzo[4,5]imidazo[1,2-a][1,4]diazocin-11-yl)ethynyl)-1-methylcyclobutane-1-carbonitrile] was less than 100 nM; that for `[2H]C([2H])([2H])N1C(=O)c2cccc(OC(F)F)c2[C@H]2C[C@@H]1c1nc3ccc(C#Cc4cnsc4)cc3n12` [Example 36, (7R,14R)-1-(difluoromethoxy)-11-(isothiazol-4-ylethynyl)-6-(methyl-d3)-6,7-dihydro-7,14-methanobenzo[f]benzo[4,5]imidazo[1,2-a][1,4]diazocin-5(14H)-one] was less than 100 nM.
The same measure for `[2H]C([2H])([2H])N1C(=O)c2cccc(OC(F)F)c2[C@H]2C[C@@H]1c1nc3ccc(C#CC4CN(C(=O)C5CC5)C4)cc3n12` [Example 127, (7R,14R)-11-((1-(cyclopropanecarbonyl)azetidin-3-yl)ethynyl)-1-(difluoromethoxy)-6-(methyl-d3)-6,7-dihydro-7,14-methanobenzo[f]benzo[4,5]imidazo[1,2-a][1,4]diazocin-5(14H)-one]: less than 100 nM.

One may read the IC50 as the concentration at which inhibition is half-maximal.

Values taken from patent US20260365682A1, “MODULATORS OF TNF-ALPHA ACTIVITY” (Forward Therapeutics, Inc., priority 2022, published 2026).
